Measurements published in US20230058189A1, “QUINOLIN-4-ONE AND 4(1H)-CINNOLINONE COMPOUNDS AND METHODS OF USING SAME” (Frequency Therapeutics, Inc., priority 2019, published 2023).
pIC50: −log10 of the molar value.

How the values were obtained:
GSK3α = GSK3α (Homo sapiens, UniProt P49840); assay: GSK3α in vitro enzymatic assay (Kinase-Glo Max luminescence); format: biochemical; conditions: recombinant human GSK3, 10 μM ATP; approximate values; read-out: Potency GSK3alpha
Protocol: (§1) Enzymatic activities of compounds of the present disclosure can be tested using recombinant human GSK3 in an in vitro enzymatic assay to determine the ability of the compounds of the present disclosure to inhibit GSK3α and GSK3β.
(§2) The assay was performed using Kinase-Glo® Max luminescence kinase assay kit (Promega). The assay measures kinase activity by quantitating the amount of ATP remaining in solution following a kinase reaction. The luminescent signal from the assay is correlated with the amount of ATP present and is inversely correlated with the amount of kinase activity.
(§3) To perform the assay, compounds were diluted in 10% DMSO and 5 μl of the dilution was added to a 50 μl reaction so that the final concentration of DMSO was 1% in all of reactions. The enzymatic reactions were conducted at 30° C. for 40 minutes. The 50 μl reaction mixture contained 40 mM Tris, pH 7.4, 10 mM MgCl2, 0.1 mg/ml BSA, 2 mM DTT, 0.1 mg/ml GSK tide substrate, 10 uM ATP and GSK3. After the enzymatic reaction, 50 μl of Kinase-Glo Max Luminescence kinase assay solution (Promega) was added to each reaction and plates were incubated for 15 minutes at room temperature. Luminescence signal was measured using a BioTek Synergy 2 microplate reader.
(§4) Kinase activity assays were performed in duplicate at each concentration. The luminescence data were analyzed using the computer software, GraphPad Prism. The difference between luminescence intensities in the absence of Kinase (Lut) and in the presence of Kinase (Luc) was defined as 100% activity (Lut-Luc). Using luminescence signal (Lu) in the presence of the compound, percent activity was calculated as: % activity={(Lut-Lu)/(Lut-Luc)}×100%, where Lu=the luminescence intensity in the presence of the compound (all percent activities below zero were shown zero in the table).
(§5) The values of percent activity versus a series of compound concentrations were then plotted using non-linear regression analysis of Sigmoidal dose-response curve generated with the equation Y=B+(T−B)/1+10((LogEC50−X)×Hill Slope), where Y=percent activity, B=minimum percent activity, T=maximum percent activity, X=logarithm of compound and Hill Slope=slope factor or Hill coefficient. The ICs, value was determined by the concentration causing a half-maximal percent activity.

GSK3β = GSK3β (Homo sapiens, UniProt P49841); assay: GSK3β in vitro enzymatic assay (Kinase-Glo Max luminescence); format: biochemical; conditions: recombinant human GSK3, 10 μM ATP; approximate values; read-out: Potency GSK3beta
GSK3β, sequence (P49841 whole entry): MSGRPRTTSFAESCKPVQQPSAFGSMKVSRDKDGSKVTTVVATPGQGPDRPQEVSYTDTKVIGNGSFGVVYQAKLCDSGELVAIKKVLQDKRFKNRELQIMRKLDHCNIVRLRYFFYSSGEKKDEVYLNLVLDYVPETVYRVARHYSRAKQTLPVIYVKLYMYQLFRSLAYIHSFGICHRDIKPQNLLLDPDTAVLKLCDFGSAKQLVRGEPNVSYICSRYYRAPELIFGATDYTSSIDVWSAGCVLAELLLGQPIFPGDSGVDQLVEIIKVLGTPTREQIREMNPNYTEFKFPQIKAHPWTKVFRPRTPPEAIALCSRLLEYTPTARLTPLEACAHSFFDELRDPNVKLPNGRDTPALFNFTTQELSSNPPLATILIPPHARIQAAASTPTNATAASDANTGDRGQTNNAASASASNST
Protocol: as §1, §2, §3, §4, §5

LSD-1 = LSD-1 (Homo sapiens, UniProt O60341); assay: LSD-1 A-screen (AlphaScreen) demethylase enzymatic assay; format: biochemical; conditions: approximate values; for inhibition at 50 µM: read-out: Potency LSD-1 % Inhibition at 50 μM
Protocol: (§6) Enzymatic activities of compounds of the present disclosure can be tested with recombinant human LSD using an in vitro enzymatic assay to determine the ability of the compounds of the present disclosure to inhibit LSD-1 and LSD2. Examples of the assay are provided below.
(§7) All of the enzymatic reactions were conducted in duplicate at room temperature for 60 minutes in a 10 μL mixture containing assay buffer, histone H3 peptide substrate, demthylase enzyme, and the test compound. These 10 μL reactions were carried out in wells of a 384-well Optiplate (PerkinElmer). The dilution of the compounds was first performed in 100% DMSO with the highest concentration at 5 mM Each intermediate compound dilution (in 100% DMSO) was then directly diluted 30× fold into assay buffer for 3.3× concentration (DMSO). […] From this intermediate step, 3 μL of compound was added to 4 μL of demethylase enzyme dilution was incubated for 30 minutes at room temperature. After this incubation, 3 μL of peptide substrate was added. The final DMSO concentration was 1%. After enzymatic reactions, 5 μL of anti-Mouse or anti-Rabbit Acceptor beads (PerkinElmer, diluted 1:500 with 1× detection buffer) and […] (BPS, diluted 1:800 with 1× detection buffer) were added to the reaction mix. After brief shaking, the plate was incubated for 30 minutes. Finally, 10 μL of AlphaScreen™ Streptavidin-conjugated donor beads (Perkin, diluted 1:125 with 1× detection buffer) were added. After 30 minutes, the samples were measured in an AlphaScreen microplate reader (EnSpire Alpha 2390 Multilabel Reader, Perkin Elmer).
(§8) Enzyme activity assays were performed in duplicates at each concentration. The A-screen intensity data were analyzed and compared. In the absence of the compound, the intensity in each data set was defined as 100% (Ce) activity. In the absence of enzyme, the intensity in each data set was defined as 0% (C0) activity. The percent activity in the presence of each compound was calculated according to the following equation: % activity=(C−C0)/(Ce−C0), where C=the intensity in the presence of the compound.
as §5, with “value” for “values”, “was” for “were”, “IC50” for “ICs,”

LSD2 = target: T1, LSD2 (Homo sapiens, UniProt Q8NB78); assay: LSD2 A-screen (AlphaScreen) demethylase enzymatic assay; format: biochemical; conditions: 50 μM compound, approximate values; for inhibition at 50 µM: read-out: Potency LSD-2 % Inhibition at 50 μM
T1 sequence (Q8NB78 1-822): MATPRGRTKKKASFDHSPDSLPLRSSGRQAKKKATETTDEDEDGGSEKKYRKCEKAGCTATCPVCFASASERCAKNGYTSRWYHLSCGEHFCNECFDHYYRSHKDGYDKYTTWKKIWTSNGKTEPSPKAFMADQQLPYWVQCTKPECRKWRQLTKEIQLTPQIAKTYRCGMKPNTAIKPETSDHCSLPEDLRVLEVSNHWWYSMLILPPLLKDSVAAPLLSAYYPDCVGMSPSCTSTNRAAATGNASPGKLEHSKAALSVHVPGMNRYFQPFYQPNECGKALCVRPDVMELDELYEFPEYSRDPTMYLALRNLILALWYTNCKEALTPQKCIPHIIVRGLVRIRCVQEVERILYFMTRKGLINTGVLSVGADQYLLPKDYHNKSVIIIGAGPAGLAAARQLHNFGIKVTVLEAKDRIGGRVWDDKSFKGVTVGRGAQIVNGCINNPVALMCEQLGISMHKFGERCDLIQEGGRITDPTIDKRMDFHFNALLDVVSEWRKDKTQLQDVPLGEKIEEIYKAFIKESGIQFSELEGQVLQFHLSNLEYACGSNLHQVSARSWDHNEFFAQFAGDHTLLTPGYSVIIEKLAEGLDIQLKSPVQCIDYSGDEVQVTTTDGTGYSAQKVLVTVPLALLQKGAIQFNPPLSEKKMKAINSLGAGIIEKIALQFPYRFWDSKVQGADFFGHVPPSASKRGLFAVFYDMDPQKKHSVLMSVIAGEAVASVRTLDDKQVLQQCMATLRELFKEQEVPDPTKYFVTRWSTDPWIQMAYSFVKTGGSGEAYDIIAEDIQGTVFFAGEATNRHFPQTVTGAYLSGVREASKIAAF
Protocol: as §6, §7, §8
as §5, with “value” for “values”, “was” for “were”, “IC50” for “ICs,”

[1] = system: Lgr5+ cells (cochlear stem cells); assay: Lgr5+ assay: expansion of Lgr5-positive cochlear cells in 3D culture; format: cell-based, mouse
Excerpt: “Stem Cell Proliferation Assay” as used herein is an assay to determine the capacity for agent(s) to induce the creation of stem cells from a starting cell population. In an exemplary Stem Cell Proliferation Assay, the number of cells for an initial cell population is harvested from a Lgr5-GFP mouse such as a B6.129P2-Lgr5tm1(cre/ERT2)Cle/J mouse (also known as Lgr5-EGFP-IRES-creERT2 or Lgr5-GFP mouse, Jackson Lab Stock No: 008875) between the age of 3 to 7 days, by isolating the organ of Corti sensory epithelium and dissociating the epithelium into single cells. Approximately 5000 cells are entrapped in 40 μl of culture substrate (for example, Matrigel (Corning, Growth Factor Reduced)) and placed at the center of wells in a 24-well plate with 500 μl of an appropriate culture media, growth factors and agent being tested. Appropriate culture media and growth factors include Advanced DMEM/F12 with media supplements (1×N2, 1×B27, 2 mM Glutamax, 10 mM HEPES, 1 mM N-acetylcysteine, and 100 U/ml penicillin/100 μg/ml streptomycin) and growth factors (50 ng/ml EGF, 50 ng/ml bFGF, and 50 ng/ml IGF-1) as well as the agent(s) being assessed are added into each well. Cells are cultured for 10 days in a standard cell culture incubator at 37° C. and 5% CO2, with media change every 2 days. The number of Lgr5^+ cells is quantified by counting the number of cells identified as Lgr5+ in an in vitro Lgr5 activity assay (i.e., an assay mearing in vitro Lgr5 activity). The fraction of cells that are Lgr5^+ is quantified by dividing the number of cells identified as Lgr5^+ in a cell population by the total number of cells present in the cell population. The average Lgr5^+ activity of a population is quantified by measuring the average mRNA expression level of Lgr5 of the population normalized using suitable and unregulated references or housekeeping genes (e.g., Hprt). The number of hair cells in a population may be measured by staining with hair cell marker (e.g., MyosinVIIa), or using an endogenous reporter of hair cell genes (e.g., Pou4f3-GFP, Atoh1-nGFP) and analyzing using flow cytometry. The fraction of cells that are hair cells is quantified by dividing the number of cells identified as hair cells in a cell population by the total number of cells present in the cell population. Lgr5 activity can be measured by qPCR.
The compounds of the present disclosure were used in Lgr5-EGFP-IRES-Cre-ER mice (Barker et al., 2007) to analyze the effects of small molecules on cochlear stem cell expansion.
Isolation of stem cells from the inner ear: All animal studies were conducted under an approved institutional protocol according to National Institutes of Health guidelines. For experiments with neonatal mice (postnatal days 1-3), the cochleae were dissected in Hank's Balanced Salt Solution (HBSS) and the organs of Corti were separated from the stria vascularis and the modiolus. The organs of Corti were then treated with Cell Recovery Solution (Corning) for 1 hour to separate cochlear epithelium from the underlying mesenchyme. Epithelia were then collected and treated with TrypLE (Life Technologies) for 15-20 minutes at 37° C. Single cells obtained by mechanical trituration were filtered (40 μm) and suspended in Matrigel® (Corning) for 3D culture.
Cells were cultured in a 1:1 mixture of DMEM and F12, supplemented with Glutamax (GIBCO), N2, B27 (Invitrogen), EGF (50 ng/ml; Chemicon), bFGF (50 ng/ml; Chemicon), IGF1 (50 ng/ml; Chemicon) and the composition provided herein. Medium was changed every other day.
Lgr5-positive cells were quantified after 10 days (D10) in culture in multiple conditions. Cell colonies were dissociated into single cells using TrypLE (Gibco). The cells were then stained with propidium iodide (P1) and were analyzed using a flow cytometer for Lgr5-GFP expression. The number of GFP-positive cells and the percentage of GFP-positive cells were quantified. […]

[2] = in a background of growth factors, compared to CHIR-99021 and its combinations (figures)

GSK3α, sequence (P49840 whole entry): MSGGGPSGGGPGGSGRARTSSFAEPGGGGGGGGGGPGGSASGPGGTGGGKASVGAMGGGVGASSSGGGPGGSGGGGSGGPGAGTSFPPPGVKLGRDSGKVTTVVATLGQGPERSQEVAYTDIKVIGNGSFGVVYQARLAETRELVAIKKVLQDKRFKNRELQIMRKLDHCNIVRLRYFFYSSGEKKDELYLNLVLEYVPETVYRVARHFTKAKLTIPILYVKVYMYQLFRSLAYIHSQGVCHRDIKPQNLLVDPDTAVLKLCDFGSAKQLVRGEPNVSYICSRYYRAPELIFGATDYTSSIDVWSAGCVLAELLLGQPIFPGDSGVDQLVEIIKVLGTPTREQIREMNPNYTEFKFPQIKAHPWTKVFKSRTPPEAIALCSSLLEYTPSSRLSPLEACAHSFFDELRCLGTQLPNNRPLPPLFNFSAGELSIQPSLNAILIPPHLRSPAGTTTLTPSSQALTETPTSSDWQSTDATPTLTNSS

Row | pIC50 (GSK3α) | pIC50 (GSK3β) | inhibition at 50 µM (LSD-1; 50 μM compound) | inhibition at 50 µM (LSD2) | pIC50 (LSD-1; read-out: Potency LSD-1 IC50) | Potency LSD-1 % Inhibition at 50 μM (LSD-1; 50 μM compound, 50 µM) | Potency LSD-2 % Inhibition at 50 μM (LSD2; 50 µM) | SMILES | Potency (Lgr5+ activity) ([1]; effective concentration for Lgr5+ expansion, 10 days culture with EGF, bFGF, IGF1, approximate values) | Lgr5 GFP+ progenitor cell proliferation (Lgr5 positive cell count) [1, 2] | enrichment of Lgr5 GFP+ cochlear progenitor cells (percent of Lgr5 positive cells) [1, 2]
1 | < 5.00 | < 5.00 | 56% | 28% | – | – | – | CCn1cc(C(=O)O)c(=O)c2c(N)cc(NCCc3ccccc3)cc21 [Compound I-56] | – | – | –
2 | < 5.00 | < 5.00 | – | – | – | – | – | CCn1cc(C(=O)O)c(=O)c2c(F)cc(NCc3ccccc3)cc21 [Compound I-55] | – | – | –
3 | < 5.00 | < 5.00 | 72% | 2% | – | – | – | CCn1cc(C(=O)O)c(=O)c2c(N)cc(NC3CCCCC3)c(F)c21 [Compound I-64] | – | – | –
4 | – | – | – | – | – | – | – | CCn1cc(C(=O)O)c(=O)c2c(N)c(F)c(N[C@@H]3C[C@H]3c3ccccc3)cc21 (relative stereo) [Compound I-20] | 1.1 µM | generate Lgr5 GFP+ progenitor cell proliferation | generates enrichment of Lgr5 GFP+ cochlear progenitor cells
5 | 6.00 | 5.80 | – | 8% | 5.07 | – | – | Nc1c(F)c(NCCN[C@@H]2C[C@H]2c2ccccc2)cc2c1c(=O)c(C(=O)O)cn2CCO (relative stereo) [Compound I-90] | – | – | –
6 | < 5.00 | < 5.00 | – | – | – | 26% @ 50 μM | 6% | CCn1cc(C(=O)O)c(=O)c2c(N)c(F)c(N[C@@H]3C[C@H]3c3ccccc3)cc21 (single isomer, unassigned) [Compound I-63] | – | – | –
7 | < 5.00 | < 5.00 | 77% | 7% | – | – | – | CCn1cc(C(=O)O)c(=O)c2c(N)cc(NC3CCCCC3)cc21 [Compound I-58] | – | – | –
8 | < 5.00 | < 5.00 | 0% | 3% | – | – | – | CCn1cc(C(=O)O)c(=O)c2c(N)c(F)c(OCCc3ccccc3)cc21 [Compound I-52] | – | – | –
